Where a name gives a salt, the structure may show the parent alone. Read-outs that look alike come from different tables or passages of the source.
Legend:
[1] = Mean plasma quinine concentration over 24 hours after single oral dose of Quinine Sulfate (Example 6, Studies 1 and 2); type: in vivo, human; conditions: for concentration at 0 h / concentration at 2 h / concentration at 4 h / concentration at 6 h / concentration at 12 h / concentration at 24 h: both sexes, human, plasma, oral
[2] = QTc interval measurements (ECG) over 24 hours after single oral dose of Quinine Sulfate (Example 6, Studies 1 and 2); type: in vivo, human
[3] = in vivo
clinical [4] = conditions: human, in vivo
clinical [5] = conditions: human, plasma, oral
[6] = 324 mg, 1 capsule, fasted
[7] = fasted, non-transformed data, least squares mean
[8] = 324 mg, Study 1, B: 324 mg capsule, fed
[9] = 324 mg, Study 2, C: 324 mg capsule, fasting
[10] = 648 mg, Study 2, D: 648 mg (two capsules), fasting
[11] = non-transformed data, least squares mean

Question: For `C=C[C@H]1C[N@@]2CC[C@H]1C[C@H]2[C@H](O)c1ccnc2ccc(OC)cc12` [Quinine Sulfate, cinchonan-9-ol, 6′-methoxy-, (8α,9R)-, sulfate (2:1)], which “Mean Plasma Concentration” value ([1]; Study 2, C: 324 mg capsule, fasting, 0 hours) is on record?
Answer: 0; ng/ml

Question: What about the concentration at 0 h ([1]; 324 mg, Study 1, B: 324 mg capsule, fed, 0 hours) of the same compound?
Answer: 0 µg/mL

Question: What about the concentration at 2 h [1, 8] of the same compound?
Answer: 0.835 µg/mL

Question: And the concentration at 4 h [1, 8]?
Answer: 2.27 µg/mL

Question: And the concentration at 6 h [1, 8]?
Answer: 2.01 µg/mL

Question: And the concentration at 12 h [1, 8]?
Answer: 1.22 µg/mL

Question: What about the concentration at 24 h [1, 8] of the same compound?
Answer: 0.543 µg/mL

Question: And the concentration at 2 h [1, 9]?
Answer: 1.86 µg/mL

Question: And the concentration at 4 h [1, 9]?
Answer: 1.88 µg/mL

Question: And the concentration at 6 h [1, 9]?
Answer: 1.71 µg/mL

Question: And the concentration at 12 h [1, 9]?
Answer: 0.994 µg/mL

Question: What about the concentration at 24 h [1, 9] of the same compound?
Answer: 0.475 µg/mL

Question: And the concentration at 0 h ([1]; 648 mg, Study 2, D: 648 mg (two capsules), fasting, 0 hours)?
Answer: 0 µg/mL

Question: What about the concentration at 2 h [1, 10] of the same compound?
Answer: 2.81 µg/mL

Question: And the concentration at 4 h [1, 10]?
Answer: 2.95 µg/mL

Question: What about the concentration at 6 h [1, 10] of the same compound?
Answer: 2.72 µg/mL

Question: What about the concentration at 12 h [1, 10] of the same compound?
Answer: 1.71 µg/mL

Question: What about the concentration at 24 h [1, 10] of the same compound?
Answer: 0.912 µg/mL

Question: What about the “subjects with significant prolongations in QTc interval (>450 msec)” value ([2]; 50 subjects, single oral doses 324 mg or 648 mg) of the same compound?
Answer: seven

Question: What about the “relation of mean QTc value to plasma concentration” value ([2]; single oral doses, Table 1) of the same compound?
Answer: an increase in the mean QTc value was found to correspond with the peak quinine plasma concentration

Question: And the AUC0-INF ([3]; human, 648 mg)?
Answer: 61.81727 µg·h/mL

Question: And the AUC0-t ([3]; human, 648 mg)?
Answer: 56.39465 µg·h/mL

Question: What about the Cmax ([3]; human, 648 mg) of the same compound?
Answer: 3.17489 µg/mL

Question: What about the “dose proportionality of AUCT and AUCinf” value [3] of the same compound?
Answer: proportional increase

Question: And the “dose proportionality of Cmax” value [3]?
Answer: nonlinear dose proportionality

Question: And the Tmax (clinical [4]; 324 mg)?
Answer: 2.78 h

Question: What about the Tmax (clinical [4]; 648 mg) of the same compound?
Answer: 2.8 h

Question: What about the AUC(0-inf) (clinical [4]; 648 mg, AUC0-INF) of the same compound?
Answer: 59.2 µg·h/mL

Question: And the AUC0-t (clinical [4]; 648 mg, AUC0-t)?
Answer: 54.4 µg·h/mL

Question: What about the Cmax (clinical [4]; 648 mg, Cmax) of the same compound?
Answer: 3.24 µg/mL

Question: What about the Tmax (clinical [5]; 260 mg) of the same compound?
Answer: 2.61 h

Question: And the AUC0-t (clinical [5]; 324 mg)?
Answer: 30.3 µg·h/mL

Question: What about the AUC(0-inf) (clinical [5]; 324 mg) of the same compound?
Answer: 32.1 µg·h/mL

Question: And the Cmax (clinical [5]; 324 mg)?
Answer: 2.28 µg/mL

Question: What about the Tmax (clinical [5]; 324 mg) of the same compound?
Answer: 2.75 h

Question: And the Cmax ([6]; Ln-transformed data, geometric mean)?
Answer: 2.2427 µg/mL

Question: What about the AUC0-INF [6, 11] of the same compound?
Answer: 33.28089 µg·h/mL

Question: And the AUC0-t [6, 11]?
Answer: 31.29812 µg·h/mL

Question: What about the kelim ([7]; 324 mg, 1 capsule) of the same compound?
Answer: 0.0592

Question: And the kelim ([7]; 648 mg, 2 capsules)?
Answer: 0.0572

From patent publication US20060263427A1, “Quinine formulations” (priority 2005, published 2006)
